Source: US20110092476A1, “Bicycloheteroaryl compounds as P2X7 modulators and uses thereof” (Renovis, Inc., priority 2006, published 2011)
Read-outs that look alike come from different tables or passages of the source.

Target: T1, P2X7 receptor (Homo sapiens, UniProt Q99572)
T1 construct: host or cells: THP-1 cells differentiated with LPS and IFN-γ
T1 sequence (Q99572 1-595): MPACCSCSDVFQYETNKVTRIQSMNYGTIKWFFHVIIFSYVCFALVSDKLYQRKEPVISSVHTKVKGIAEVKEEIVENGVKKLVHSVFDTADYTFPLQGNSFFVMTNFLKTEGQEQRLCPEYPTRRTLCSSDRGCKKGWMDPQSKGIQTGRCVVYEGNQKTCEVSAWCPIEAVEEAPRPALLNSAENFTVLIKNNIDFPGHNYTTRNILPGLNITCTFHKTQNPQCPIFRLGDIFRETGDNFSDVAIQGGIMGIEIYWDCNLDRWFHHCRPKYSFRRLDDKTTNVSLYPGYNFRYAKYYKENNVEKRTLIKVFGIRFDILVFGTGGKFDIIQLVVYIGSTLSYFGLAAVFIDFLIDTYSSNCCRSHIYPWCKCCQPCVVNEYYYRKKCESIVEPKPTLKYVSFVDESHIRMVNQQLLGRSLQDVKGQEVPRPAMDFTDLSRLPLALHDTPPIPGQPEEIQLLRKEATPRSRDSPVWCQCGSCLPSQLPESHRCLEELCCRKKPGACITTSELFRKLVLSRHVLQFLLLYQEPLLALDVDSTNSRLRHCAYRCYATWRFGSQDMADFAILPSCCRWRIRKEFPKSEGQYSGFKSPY
Assay: IL-1β release assay in differentiated THP-1 cells stimulated with BzATP (Example 9)
Type: cell-based
Summary of the method: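 THP-1 cells differentiated 16 h with 100 ng/mL LPS and 100 ng/mL IFN-γ, primed 2 h with fresh LPS, pretreated 30 min with compound, then stimulated 45 min with 250 uM BzATP (final). Supernatant IL-1β measured by ELISA; background-adjusted percent inhibition fitted to a four-parameter logistic for IC50.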

[1] = 0.3 μM compound, differentiated THP-1 cells, BzATP 250 uM, "+" symbols, read-out: IL-1β % Inhib. @ 0.3 or 0.1 uM
[2] = 0.1 μM compound, differentiated THP-1 cells, BzATP 250 uM, "*" symbols, read-out: IL-1β % Inhib. @ 0.3 or 0.1 uM
[3] = 0.1 μM compound (symbols *), differentiated THP-1 cells, BzATP 250 uM, read-out: IL-1β % Inhib. @ 0.3 or 0.1 uM
[4] = 0.3 μM compound (symbols +), differentiated THP-1 cells, BzATP 250 uM, read-out: IL-1β % Inhib. @ 0.3 or 0.1 uM

Structure (SMILES): C[C@H](C(N)=O)n1ccc2c(NC(=O)Cc3ccc(C(F)(F)F)cc3F)cccc2c1=O [Compound 296]
- inhibition at 0.3 µM [1]: > 76%

Structure (SMILES): COc1ccc2c(=O)n([C@H](C)CO)ccc2c1NC(=O)Cc1ccc(C(F)(F)F)c(F)c1 [Compound 358]
- inhibition at 0.3 µM [1]: 0 to 25%

Structure (SMILES): Cc1cc(Cl)ccc1C(=O)Nc1cccc2c(=O)n(CC(C)(C)O)ccc12 [Compound 221]
- inhibition at 0.1 µM [2]: 26 to 50%

Structure (SMILES): CC(CO)n1ccc2c(NC(=O)CCc3ccc4c(c3)OCO4)cccc2c1=O (centres unmarked) [Compound 94]
- inhibition at 0.1 µM [3]: 0 to 25%

Structure (SMILES): Cc1cccc(C(=O)Nc2cccc3c(=O)n(CC(C)O)ccc23)c1C (centres unmarked) [Compound 140]
- inhibition at 0.1 µM [3]: 0 to 25%

Structure (SMILES): Cc1ccc(C(=O)Nc2cccc3c(=O)n(CC(C)O)ccc23)c(C)c1 (centres unmarked) [Compound 141]
- inhibition at 0.1 µM [3]: 0 to 25%

Structure (SMILES): CC(O)Cn1ccc2c(NC(=O)Cc3ccccc3F)cccc2c1=O (centres unmarked) [Compound 153]
- inhibition at 0.1 µM [3]: 0 to 25%

Structure (SMILES): Cc1cccc(CC(=O)Nc2cccc3c(=O)n(CC(C)(C)O)ccc23)c1 [Compound 213]
- inhibition at 0.1 µM [2]: 0 to 25%

Structure (SMILES): C[C@@H](CO)n1ccc2c(NC(=O)Cc3ccc(Cl)c(F)c3)cccc2c1=O [Compound 334]
- inhibition at 0.3 µM [1]: 51 to 75%

Structure (SMILES): CC(C)C[C@H](CO)n1ccc2c(NC(=O)Cc3ccc(Cl)c(Cl)c3)cccc2c1=O [Compound 275]
- inhibition at 0.3 µM [1]: > 76%

Structure (SMILES): C[C@@H](C(N)=O)n1ccc2c(NC(=O)Cc3cccc(C(F)(F)F)c3F)cccc2c1=O [Compound 349]
- inhibition at 0.3 µM [1]: > 76%

Structure (SMILES): COc1c(C)cc(C(=O)Nc2cccc3c(=O)n(CC4(O)CCCCC4)ccc23)cc1C [Compound 40]
- inhibition at 0.3 µM [4]: 0 to 25%

Structure (SMILES): C[C@H](C(N)=O)n1ccc2c(NC(=O)Cc3cc(F)c(F)c(F)c3)cccc2c1=O [Compound 381]
- inhibition at 0.3 µM [1]: > 76%

Structure (SMILES): CC(O)Cn1ccc2c(NC(=O)c3cccc4c3OCCO4)cccc2c1=O (centres unmarked) [Compound 170]
- inhibition at 0.1 µM [3]: 26 to 50%

Structure (SMILES): CC(C)[C@H](C(=O)O)n1ccc2c(NC(=O)[C@@H](C)c3ccc(Cl)cc3)cccc2c1=O [Compound 323, (R)-2-{5-[(S)-2-(4-Chloro-phenyl)-propionylamino]-1-oxo-1H-isoquinolin-2-yl}-3-methyl-butyric acid]
- inhibition at 0.3 µM [1]: 51 to 75%

Structure (SMILES): CC(C)Cc1ccc(C(=O)Nc2cccc3c(=O)n(CC4(O)CCCCC4)ccc23)cc1 [Compound 59]
- inhibition at 0.3 µM [4]: 26 to 50%

Structure (SMILES): CC(O)Cn1ccc2c(NC(=O)c3cc4ccccc4o3)cccc2c1=O (centres unmarked) [Compound 164]
- inhibition at 0.1 µM [3]: 0 to 25%

Structure (SMILES): CC(C)(O)Cn1ccc2c(NC(=O)c3ccc(Cl)cc3Cl)cccc2c1=O [Compound 198]
- inhibition at 0.1 µM [2]: 0 to 25%

Structure (SMILES): CC(O)Cn1ccc2c(NC(=O)Cc3cccc4ccccc34)cccc2c1=O (centres unmarked) [Compound 151]
- inhibition at 0.1 µM [3]: 0 to 25%

Structure (SMILES): CCOc1ccccc1CC(=O)Nc1cccc2c(=O)n(CC3(O)CCCCC3)ccc12 [Compound 50]
- inhibition at 0.3 µM [4]: 0 to 25%

Structure (SMILES): O=C(Nc1cccc2c(=O)n(CCO)ccc12)C1(c2ccc(Cl)cc2)CCCC1 [Compound 79]
- inhibition at 0.3 µM [4]: 0 to 25%
- IC50 (THP-1 cells, BzATP 250 uM, IL-1β by ELISA): > 1000 nM

Structure (SMILES): CC(C)(O)Cn1ccc2c(NC(=O)c3ccc4c(c3)OCCCO4)cccc2c1=O [Compound 223]
- inhibition at 0.1 µM [2]: 0 to 25%

Structure (SMILES): O=C(Nc1cccc2c(=O)n(CC3(O)CCCCC3)ccc12)c1cc2ccccc2o1 [Compound 37]
- inhibition at 0.3 µM [4]: 0 to 25%

Structure (SMILES): COc1ccc(CC(=O)Nc2cccc3c(=O)n(CC4(O)CCCCC4)ccc23)c(OC)c1 [Compound 47]
- inhibition at 0.3 µM [4]: 0 to 25%

Structure (SMILES): COc1ccc(C(=O)Nc2cccc3c(=O)n(CC(C)(C)O)ccc23)c(C)c1 [Compound 186]
- inhibition at 0.1 µM [3]: 0 to 25%

Structure (SMILES): Cc1cccc(CCC(=O)Nc2cccc3c(=O)n(CC4(O)CCCCC4)ccc23)c1 [Compound 53]
- inhibition at 0.3 µM [4]: 0 to 25%

Structure (SMILES): Cc1cc(C)c(CC(=O)Nc2cccc3c(=O)n(CC(C)O)ccc23)c(C)c1 (centres unmarked) [Compound 129]
- inhibition at 0.1 µM [3]: 0 to 25%

Structure (SMILES): CCOc1cccc(C(=O)Nc2cccc3c(=O)n(CC(C)O)ccc23)c1 (centres unmarked) [Compound 132]
- inhibition at 0.1 µM [3]: 0 to 25%

Structure (SMILES): O=C(Cc1cc(C(F)(F)F)ccc1Cl)Nc1cccc2c(=O)n(CCO)ccc12 [Compound 67]
- inhibition at 0.3 µM [4]: 0 to 25%

Structure (SMILES): Cc1cccc(C(=O)Nc2cccc3c(=O)n(CC4(O)CCCCC4)ccc23)c1C [Compound 85]
- inhibition at 0.1 µM [3]: 0 to 25%

Structure (SMILES): Cc1ccc(Cl)cc1C(=O)Nc1cccc2c(=O)n(CC(C)O)ccc12 (centres unmarked) [Compound 179]
- inhibition at 0.1 µM [3]: 0 to 25%

Structure (SMILES): CNCCn1ccc2c(NC(=O)Cc3ccc(Cl)c(Cl)c3)cccc2c1=O [Compound 234]
- inhibition at 0.3 µM [1]: 51 to 75%

Structure (SMILES): Cc1ccccc1CCC(=O)Nc1cccc2c(=O)n(CC(C)(C)O)ccc12 [Compound 187]
- inhibition at 0.1 µM [3]: 0 to 25%

Structure (SMILES): CS(=O)(=O)c1ccc(CC(=O)Nc2cccc3c(=O)n(CCO)ccc23)cc1 [Compound 72]
- inhibition at 0.3 µM [4]: 0 to 25%

Structure (SMILES): CC(C)(O)Cn1ccc2c(NC(=O)Cc3cccc4ccccc34)cccc2c1=O [Compound 205]
- inhibition at 0.1 µM [2]: 0 to 25%

Structure (SMILES): CCOc1ccccc1CC(=O)Nc1cccc2c(=O)n(CC(C)O)ccc12 (centres unmarked) [Compound 176]
- inhibition at 0.1 µM [3]: 0 to 25%

Structure (SMILES): COc1ccccc1CCC(=O)Nc1cccc2c(=O)n(CC3(O)CCCCC3)ccc12 [Compound 87]
- inhibition at 0.1 µM [3]: 0 to 25%

Structure (SMILES): C[C@H](C(N)=O)n1ccc2c(NC(=O)Cc3ccc(C(F)(F)F)cc3C(F)(F)F)cccc2c1=O [Compound 380]
- inhibition at 0.3 µM [1]: > 76%

Structure (SMILES): CNC(=O)[C@@H](CO)n1ccc2c(NC(=O)C(C)c3ccc(Cl)c(Cl)c3)cccc2c1=O (stereo partly drawn) [Compound 270, (R)-2-{5-[2-(3,4-Dichloro-phenyl)-propionylamino]-1-oxo-1H-isoquinolin-2-yl}-3-hydroxy-N-methyl-propionamide]
- inhibition at 0.3 µM [1]: > 76%

Structure (SMILES): CC(C)(CO)n1ccc2c(NC(=O)Cc3ccc(C(F)(F)F)cc3F)cccc2c1=O [Compound 370]
- inhibition at 0.3 µM [1]: > 76%

Structure (SMILES): O=C(Cc1ccc(Cl)c(Cl)c1)Nc1cccc2c(=O)n(C[C@H]3CCCN3)ccc12 [Compound 245]
- inhibition at 0.3 µM [1]: > 76%

Structure (SMILES): C[C@@H](C(N)=O)n1ccc2c(NC(=O)Cc3ccc(C(F)(F)F)cc3)c(Cl)ccc2c1=O [Compound 345, (S)-2-{6-Chloro-1-oxo-5-[2-(4-trifluoromethyl-phenyl)-acetylamino]-1H-isoquinolin-2-yl}-propionamide]
- inhibition at 0.3 µM (THP-1, read-out: IL-1β % Inhib. @ 0.3 or 0.1 uM): > 76%

Structure (SMILES): Cc1ccc(C(=O)Nc2cccc3c(=O)n(CC(C)O)ccc23)cc1Cl (centres unmarked) [Compound 168]
- inhibition at 0.1 µM [3]: 0 to 25%

Structure (SMILES): C[C@@H](C(N)=O)n1ccc2c(NC(=O)Cc3ccc(Cl)cc3F)cccc2c1=O [Compound 350]
- inhibition at 0.3 µM [1]: > 76%

Structure (SMILES): COc1ccccc1CC(=O)Nc1cccc2c(=O)n(CC(C)(C)O)ccc12 [Compound 209]
- inhibition at 0.1 µM [2]: 0 to 25%

Structure (SMILES): Cc1ccccc1CCC(=O)Nc1cccc2c(=O)n(CC(C)O)ccc12 (centres unmarked) [Compound 126]
- inhibition at 0.1 µM [3]: 26 to 50%

Structure (SMILES): Cc1ccc(Cl)cc1C(=O)Nc1cccc2c(=O)n(CC3(O)CCCCC3)ccc12 [Compound 52]
- inhibition at 0.3 µM [4]: 0 to 25%

Structure (SMILES): CC(O)Cn1ccc2c(NC(=O)Cc3ccc4c(c3)OCO4)cccc2c1=O (centres unmarked) [Compound 165]
- inhibition at 0.1 µM [3]: 0 to 25%

Structure (SMILES): CNCCn1ccc2c(NC(=O)Cc3ccc(Cl)c(C(F)(F)F)c3)cccc2c1=O [Compound 235, 2-(4-Chloro-3-trifluoromethyl-phenyl)-N-[2-(2-methylamino-ethyl)-1-oxo-1,2-dihydro-isoquinolin-5-yl]-acetamide]
- inhibition at 0.3 µM [1]: > 76%

Structure (SMILES): Cc1cc(C(=O)Nc2cccc3c(=O)n(CC4(O)CCCCC4)ccc23)ccc1F [Compound 48]
- inhibition at 0.3 µM [4]: 0 to 25%

Structure (SMILES): C[C@@H](CO)n1ccc2c(NC(=O)Cc3ccc(C(F)(F)F)cc3)cccc2c1=O [Compound 318]
- inhibition at 0.3 µM [1]: 51 to 75%

Structure (SMILES): CC(C)(CO)n1ccc2c(NC(=O)Cc3ccc(Cl)c(F)c3)cccc2c1=O [Compound 373]
- inhibition at 0.3 µM [1]: 51 to 75%

Structure (SMILES): Cc1ccccc1CC(=O)Nc1cccc2c(=O)n(CC3(O)CCCCC3)ccc12 [Compound 89]
- inhibition at 0.1 µM [3]: 0 to 25%

Structure (SMILES): COc1cccc(CC(=O)Nc2cccc3c(=O)n(CC(C)(C)O)ccc23)c1 [Compound 212]
- inhibition at 0.1 µM [2]: 26 to 50%

Structure (SMILES): COc1cccc(CCC(=O)Nc2cccc3c(=O)n(CC4(O)CCCCC4)ccc23)c1 [Compound 10]
- inhibition at 0.1 µM [3]: 0 to 25%

Structure (SMILES): CCOc1cccc(C(=O)Nc2cccc3c(=O)n(CC(C)(C)O)ccc23)c1 [Compound 193]
- inhibition at 0.1 µM [3]: 0 to 25%

Structure (SMILES): CC(C(=O)Nc1cccc2c(=O)n(CCO)ccc12)c1ccc(Cl)c(C(F)(F)F)c1 (centres unmarked) [Compound 251]
- inhibition at 0.3 µM [1]: > 76%

Structure (SMILES): C[C@H](C(N)=O)n1ccc2c(NC(=O)Cc3ccc(C#N)cc3)cccc2c1=O [Compound 287]
- inhibition at 0.3 µM [1]: 26 to 50%

Structure (SMILES): O=C(Cc1ccc(C(F)(F)F)cc1C(F)(F)F)Nc1cccc2c(=O)n(CCO)ccc12 [Compound 230]
- inhibition at 0.3 µM [1]: > 76%

Structure (SMILES): COc1ccc(CC(=O)Nc2cccc3c(=O)n(CCO)ccc23)cc1Br [Compound 66]
- inhibition at 0.3 µM [4]: > 76%

Structure (SMILES): CC(C)(O)Cn1ccc2c(NC(=O)CCc3ccccc3Cl)cccc2c1=O [Compound 194]
- inhibition at 0.1 µM [3]: 0 to 25%
